Converted amounts (≈) assume the structure as drawn. Like-named read-outs stand apart in the source and are kept apart here.
What was measured:
Assay in all cases: MIC by agar plate dilution method
Format in all cases: cell-based
C. freundii No. 7 = conditions: Citrobacter freundii; C. freundii No. 7; 10^6 CFU/ml; read-out: Minimum Inhibitory Concentration
Method: (§1) The minimum inhibitory concentrations (MIC: μg/ml) of the compounds of the present invention against various microorganisms were measured by an agar plate dilution method (inoculum size: 10^6 CFU/ml) by using Sensitivity Disk Agar (Nissui) in comparison with Cefotaxime and Ceftazidime as comparative compounds.
(§2) Minimum Inhibitory Concentration (μg/ml; 10^6 CFU/ml)

A. calcoaceticus No. 14 = conditions: Acinetobacter calcoaceticus, NO.14, A. calcoaceticus No. 14; 10^6 CFU/ml; read-out: Minimum Inhibitory Concentration
Method: as §1, §2

E. coli ML1410/Rte16 = conditions: Escherichia coli, ML1410/RTE16, read-out: Minimum Inhibitory Concentration, E. coli ML1410/Rte16; 10^6 CFU/ml
Method: as §1, §2

P. aeruginosa AKR17 = conditions: Pseudomonas aeruginosa, AKR17, P. aeruginosa AKR17; 10^6 CFU/ml; read-out: Minimum Inhibitory Concentration
Method: as §1, §2

P. aeruginosa AK109 = conditions: Pseudomonas aeruginosa, AK109, P. aeruginosa AK109; 10^6 CFU/ml; read-out: Minimum Inhibitory Concentration
Method: as §1, §2

P. maltophilia IID 1275 = conditions: Stenotrophomonas maltophilia, IID1275; P. maltophilia IID 1275; 10^6 CFU/ml; read-out: Minimum Inhibitory Concentration
Method: as §1, §2

P. vulgaris OB1043 = conditions: Proteus vulgaris, OB1043, P. vulgaris OB1043; 10^6 CFU/ml; read-out: Minimum Inhibitory Concentration
Method: as §1, §2

P. vulgaris No. 33 = conditions: Proteus vulgaris
Method: as §1, §2

E. coli CSH = conditions: Escherichia coli, 10^6 CFU/ml, read-out: Minimum Inhibitory Concentration
Method: as §1, §2

S. aureus NIHJJC-1 = conditions: Staphylococcus aureus
Method: as §1, §2

E. coli NIHJJC-2 = conditions: Escherichia coli, NIHJJC2, E. coli NIHJJC-2; 10^6 CFU/ml; read-out: Minimum Inhibitory Concentration
Method: as §1, §2

E. cloaceae Nek 39 = conditions: E. cloaceae Nek 39; 10^6 CFU/ml; read-out: Minimum Inhibitory Concentration
Method: as §1, §2

E. coli W3630/Rms212 = conditions: Escherichia coli, W3630/RMS212, read-out: Minimum Inhibitory Concentration, E. coli W3630/Rms212; 10^6 CFU/ml
Method: as §1, §2

S. marcescens No. 16-2 = conditions: Serratia marcescens
Method: as §1, §2

E. coli C/Rms149 = conditions: Escherichia coli, read-out: Minimum Inhibitory Concentration, E. coli C/Rms149; 10^6 CFU/ml
Method: as §1, §2

E. coli CSH2 = conditions: Escherichia coli, 10^6 CFU/ml, read-out: Minimum Inhibitory Concentration
Method: as §1, §2

K. pneumoniae No. 42 = conditions: Klebsiella pneumoniae
Method: as §1, §2

P. mirabilis JY10 = conditions: Proteus mirabilis
Method: as §1, §2

S. aureus JS-1 = conditions: Staphylococcus aureus, JS1; S. aureus JS-1; 10^6 CFU/ml; read-out: Minimum Inhibitory Concentration
Method: as §1, §2

E. coli W3630/Rms213 = conditions: Escherichia coli, W3630/RMS213, read-out: Minimum Inhibitory Concentration, E. coli W3630/Rms213; 10^6 CFU/ml
Method: as §1, §2

P. cepacia 23 = conditions: Burkholderia cepacia; P. cepacia 23; 10^6 CFU/ml; read-out: Minimum Inhibitory Concentration
Method: as §1, §2

[1] = P. vulgaris No. 33, 10^6 CFU/ml, read-out: Minimum Inhibitory Concentration
[2] = K. pneumoniae No. 42, 10^6 CFU/ml, read-out: Minimum Inhibitory Concentration
[3] = P. mirabilis JY10, 10^6 CFU/ml, read-out: Minimum Inhibitory Concentration
[4] = NIHJJC1, S. aureus NIHJJC-1, 10^6 CFU/ml, read-out: Minimum Inhibitory Concentration
[5] = NO.162, S. marcescens No. 16-2, 10^6 CFU/ml, read-out: Minimum Inhibitory Concentration

C[N+]1(CC2=C(C(=O)[O-])N3C(=O)C(NC(=O)C(=NOC4CCCC4)c4csc(N)n4)C3SC2)CCc2cc(O)c(O)cc2C1 (stereo not drawn) [Ex. 16-D, 7-[(Z)-2-(2-aminothiazol-4-yl)-2-cyclopentyloxyiminoacetamido]-3-(6,7-dihydroxy-2-methyl-1,2,3,4-tetrahydro-2-isoquinolinium)methyl-3-cephem-4-carboxylate]
MIC (C. freundii No. 7): 1.56 µg/mL (≈ 2.48 µM)
MIC (A. calcoaceticus No. 14): 1.56 µg/mL (≈ 2.48 µM)
MIC (E. coli ML1410/Rte16): 0.025 µg/mL (≈ 0.0398 µM)
MIC (P. aeruginosa AKR17): 0.2 µg/mL (≈ 0.318 µM)
MIC (P. aeruginosa AK109): 0.05 µg/mL (≈ 0.0795 µM)
MIC (P. maltophilia IID 1275): 12.5 µg/mL (≈ 19.9 µM)
MIC (P. vulgaris OB1043): 0.2 µg/mL (≈ 0.318 µM)
MIC (P. vulgaris No. 33; [1]): 0.1 µg/mL (≈ 0.159 µM)
MIC (E. coli CSH): 0.1 µg/mL (≈ 0.159 µM)
MIC (S. aureus NIHJJC-1; NIHJJC1, read-out: Minimum Inhibitory Concentration): 1.56 µg/mL (≈ 2.48 µM)
MIC (E. coli NIHJJC-2): 0.1 µg/mL (≈ 0.159 µM)
MIC (E. cloaceae Nek 39): 0.0125 µg/mL (≈ 0.0199 µM)
MIC (E. coli W3630/Rms212): 0.0125 µg/mL (≈ 0.0199 µM)
MIC (S. marcescens No. 16-2; NO.162, read-out: Minimum Inhibitory Concentration): 1.56 µg/mL (≈ 2.48 µM)
MIC (E. coli C/Rms149): 0.025 µg/mL (≈ 0.0398 µM)
MIC (E. coli CSH2): 0.1 µg/mL (≈ 0.159 µM)
MIC (K. pneumoniae No. 42; [2]): 0.1 µg/mL (≈ 0.159 µM)
MIC (P. mirabilis JY10; [3]): 0.2 µg/mL (≈ 0.318 µM)
MIC (S. aureus JS-1): 12.5 µg/mL (≈ 19.9 µM)
MIC (E. coli W3630/Rms213): 0.1 µg/mL (≈ 0.159 µM)
MIC (P. cepacia 23): 0.0125 µg/mL (≈ 0.0199 µM)

CON=C(C(=O)NC1C(=O)N2C(C(=O)[O-])=C(C[N+]3(C)CCc4c(ccc(O)c4O)C3)CSC12)c1csc(N)n1 (stereo not drawn) [Ex. 11, 7-[(Z)-2-(2-aminothiazol-4-yl)-2-methoxyiminoacetamido]-3-(5,6-dihydroxy-2-methyl-1,2,3,4-tetrahydro-2-isoquinolinium)methyl-3-cephem-4-carboxylate]
MIC (C. freundii No. 7): 12.5 µg/mL (≈ 21.8 µM)
MIC (A. calcoaceticus No. 14): 0.39 µg/mL (≈ 0.679 µM)
MIC (E. coli ML1410/Rte16): 0.1 µg/mL (≈ 0.174 µM)
MIC (P. aeruginosa AKR17): 6.25 µg/mL (≈ 10.9 µM)
MIC (P. aeruginosa AK109): 0.2 µg/mL (≈ 0.348 µM)
MIC (P. maltophilia IID 1275): > 50 µg/mL
MIC (P. vulgaris OB1043): 1.56 µg/mL (≈ 2.71 µM)
MIC (P. vulgaris No. 33; [1]): 0.2 µg/mL (≈ 0.348 µM)
MIC (E. coli CSH): 0.78 µg/mL (≈ 1.36 µM)
MIC (S. aureus NIHJJC-1; [4]): 6.25 µg/mL (≈ 10.9 µM)
MIC (E. coli NIHJJC-2): 0.05 µg/mL (≈ 0.087 µM)
MIC (E. cloaceae Nek 39): 0.025 µg/mL (≈ 0.0435 µM)
MIC (E. coli W3630/Rms212): 0.025 µg/mL (≈ 0.0435 µM)
MIC (S. marcescens No. 16-2; [5]): 12.5 µg/mL (≈ 21.8 µM)
MIC (E. coli C/Rms149): 0.1 µg/mL (≈ 0.174 µM)
MIC (E. coli CSH2): 0.39 µg/mL (≈ 0.679 µM)
MIC (K. pneumoniae No. 42; NO.42, read-out: Minimum Inhibitory Concentration): 0.39 µg/mL (≈ 0.679 µM)
MIC (P. mirabilis JY10; JY10, read-out: Minimum Inhibitory Concentration): 0.39 µg/mL (≈ 0.679 µM)
MIC (S. aureus JS-1): 25 µg/mL (≈ 43.5 µM)
MIC (E. coli W3630/Rms213): 0.78 µg/mL (≈ 1.36 µM)
MIC (P. cepacia 23): 0.2 µg/mL (≈ 0.348 µM)

C[N+]1(CC2=C(C(=O)[O-])N3C(=O)C(NC(=O)C(=NOC4(C(=O)O)CC4)c4csc(N)n4)C3SC2)CCc2cc(O)c(O)cc2C1 (stereo not drawn) [Ex. 17-E, 7-[(Z)-2-(2-aminothiazol-4-yl)-2-(1-carboxy-1-cyclopropoxyimino)acetamido]-3-(6,7-dihydroxy-2-methyl-1,2,3,4-tetrahydro-2-isoquinolinium)methyl-3-cephem-4-carboxylate]
MIC (C. freundii No. 7): 1.56 µg/mL (≈ 2.42 µM)
MIC (A. calcoaceticus No. 14): 0.1 µg/mL (≈ 0.155 µM)
MIC (E. coli ML1410/Rte16): ≤ 0.05 µg/mL
MIC (P. aeruginosa AKR17): 0.1 µg/mL (≈ 0.155 µM)
MIC (P. aeruginosa AK109): ≤ 0.05 µg/mL
MIC (P. maltophilia IID 1275): 1.56 µg/mL (≈ 2.42 µM)
MIC (P. vulgaris OB1043): ≤ 0.05 µg/mL
MIC (P. vulgaris No. 33; NO.33, read-out: Minimum Inhibitory Concentration): ≤ 0.05 µg/mL
MIC (E. coli CSH): ≤ 0.05 µg/mL
MIC (S. aureus NIHJJC-1; [4]): 12.5 µg/mL (≈ 19.4 µM)
MIC (E. coli NIHJJC-2): ≤ 0.05 µg/mL
MIC (E. cloaceae Nek 39): ≤ 0.05 µg/mL
MIC (E. coli W3630/Rms212): ≤ 0.05 µg/mL
MIC (S. marcescens No. 16-2; [5]): 0.39 µg/mL (≈ 0.605 µM)
MIC (E. coli C/Rms149): ≤ 0.05 µg/mL
MIC (E. coli CSH2): ≤ 0.05 µg/mL
MIC (K. pneumoniae No. 42; [2]): ≤ 0.05 µg/mL
MIC (P. mirabilis JY10; [3]): ≤ 0.05 µg/mL
MIC (S. aureus JS-1): > 25 µg/mL
MIC (E. coli W3630/Rms213): ≤ 0.05 µg/mL
MIC (P. cepacia 23): ≤ 0.05 µg/mL

Reference: patent US4742053A, “3-Isoquinoliniomethyl cephalosporin derivatives” (Banyu Pharmaceutical Co., Ltd., priority 1984, dated 1988)
